Read-outs that look alike come from different tables or passages of the source.

For assay [1], the target named is T1, KRAS G12C::SOS1 (Homo sapiens, UniProt Q07889).
T1 construct: purchased CISBIO 64KRASG12PEH
T1 sequence (Q07889 1-1333): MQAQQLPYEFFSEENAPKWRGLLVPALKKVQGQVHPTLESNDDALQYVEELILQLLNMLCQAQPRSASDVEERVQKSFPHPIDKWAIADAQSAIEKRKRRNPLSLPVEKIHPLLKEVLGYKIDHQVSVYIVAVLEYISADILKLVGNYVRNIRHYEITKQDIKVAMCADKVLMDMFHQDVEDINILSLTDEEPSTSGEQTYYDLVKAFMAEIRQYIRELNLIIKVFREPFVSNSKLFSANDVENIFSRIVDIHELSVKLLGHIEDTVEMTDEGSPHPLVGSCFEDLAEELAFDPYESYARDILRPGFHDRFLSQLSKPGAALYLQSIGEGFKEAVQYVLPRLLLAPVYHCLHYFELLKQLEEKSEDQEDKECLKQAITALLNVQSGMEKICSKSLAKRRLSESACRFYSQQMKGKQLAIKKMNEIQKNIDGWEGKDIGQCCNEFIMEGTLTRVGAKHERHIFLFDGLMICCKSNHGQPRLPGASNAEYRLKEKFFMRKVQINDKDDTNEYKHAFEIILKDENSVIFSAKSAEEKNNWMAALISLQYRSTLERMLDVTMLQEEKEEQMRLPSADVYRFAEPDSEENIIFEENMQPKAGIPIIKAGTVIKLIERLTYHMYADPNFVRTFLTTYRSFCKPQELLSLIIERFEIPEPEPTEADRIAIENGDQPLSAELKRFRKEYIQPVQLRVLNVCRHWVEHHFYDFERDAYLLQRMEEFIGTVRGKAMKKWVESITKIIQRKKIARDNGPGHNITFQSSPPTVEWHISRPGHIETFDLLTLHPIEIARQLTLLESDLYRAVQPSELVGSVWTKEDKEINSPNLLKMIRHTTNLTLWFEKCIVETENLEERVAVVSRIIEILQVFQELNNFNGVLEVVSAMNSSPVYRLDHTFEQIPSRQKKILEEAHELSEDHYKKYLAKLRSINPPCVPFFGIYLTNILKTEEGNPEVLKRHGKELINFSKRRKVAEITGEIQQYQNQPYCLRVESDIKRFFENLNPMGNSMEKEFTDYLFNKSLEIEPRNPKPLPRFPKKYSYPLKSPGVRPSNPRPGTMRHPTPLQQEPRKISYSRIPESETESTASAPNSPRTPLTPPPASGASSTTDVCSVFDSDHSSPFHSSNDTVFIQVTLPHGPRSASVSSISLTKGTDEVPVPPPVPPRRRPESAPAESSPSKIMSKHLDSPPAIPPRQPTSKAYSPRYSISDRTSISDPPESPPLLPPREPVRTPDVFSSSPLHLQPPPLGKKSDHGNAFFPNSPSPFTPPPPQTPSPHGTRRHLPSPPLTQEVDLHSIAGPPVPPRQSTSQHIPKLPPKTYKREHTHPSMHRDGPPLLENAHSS
In words: KRAS G12C::SOS1 protein-protein interaction (PPI) inhibition assay (HTRF). It counts as binding. The procedure, abridged: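 Compounds, at eight 3-fold dilutions from 3 µM, were mixed with GTP-loaded Tag1-KRAS G12C, Tag2-SOS1 and a terbium-cryptate donor plus XL665 acceptor antibody pair. After 2 h at room temperature, time-resolved FRET reported the KRAS–SOS1 interaction.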

The target in assay [2] is T2, SOS1 (Homo sapiens, UniProt Q07889).
T2 construct: HIS-SOS1cat (160 nM; Cytoskeleton, US); His (N); purchased Cytoskeleton
T2 sequence (Q07889 564-1049 limits assumed): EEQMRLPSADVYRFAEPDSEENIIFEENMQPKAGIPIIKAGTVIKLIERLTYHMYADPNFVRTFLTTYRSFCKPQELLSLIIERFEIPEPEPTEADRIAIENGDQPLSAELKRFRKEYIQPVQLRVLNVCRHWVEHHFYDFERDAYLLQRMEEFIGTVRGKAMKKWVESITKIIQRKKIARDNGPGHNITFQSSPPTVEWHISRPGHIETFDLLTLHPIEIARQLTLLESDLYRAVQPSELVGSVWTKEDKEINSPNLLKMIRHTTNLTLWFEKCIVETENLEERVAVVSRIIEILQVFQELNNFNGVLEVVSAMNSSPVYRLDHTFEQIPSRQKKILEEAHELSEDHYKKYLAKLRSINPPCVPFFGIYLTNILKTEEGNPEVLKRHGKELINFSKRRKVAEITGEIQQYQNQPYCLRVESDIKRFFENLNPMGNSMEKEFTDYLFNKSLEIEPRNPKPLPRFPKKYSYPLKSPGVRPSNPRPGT
The assay is described as follows: SOS-catalyzed nucleotide exchange assay (HTRF, SOS1-mediated GTP loading of KRAS G12D). It counts as biochemical. (Time-resolved FRET reads energy transfer from a long-lived donor to a nearby acceptor.)

[3] abbreviates: 8 concentrations from 3 µM, three replicates, read-out: KRAS G12C::SOS1 PPI.
[4] abbreviates: GST-KRAS G12D, HIS-SOS1cat, compound 128 pM to 10 µM, read-out: SOS-catalyzed nucleotide exchange assay.

`Cc1cc(C(=O)N[C@H](C)c2cccc(C(F)(F)COS(=O)(=O)c3ccccn3)c2F)nn(-c2cncc(-c3cnnn3C)c2)c1=O` [Example 8, N-[(R)-1-{3-[1,1-difluoro-2-(2-pyridylsulfonyloxy)ethyl]-2-fluorophenyl}ethyl]-5-methyl-1-[5-(1-methyl-1H-1,2,3-triazol-5-yl)-3-pyridyl]-6-oxo-1,6-dihydropyridazine-3-carboxamide]: the IC50 in assay [1] (setting [3]) and in assay [2] (setting [4]) was less than 50 nM each time.

`C[C@@H](NC(=O)c1ccc(=O)n(-c2cncc(-c3cnnn3CCO)c2)n1)c1cccc(C(F)(F)F)c1F` [Example 11, N-{(R)-1-[2-fluoro-3-(trifluoromethyl)phenyl]ethyl}-1-{5-[1-(2-hydroxyethyl)-1H-1,2,3-triazol-5-yl]-3-pyridyl}-6-oxo-1,6-dihydropyridazine-3-carboxamide]: the IC50 was 50 to 150 nM in assay [1] (setting [3]) and less than 50 nM in assay [2] (setting [4]).

On to `C[C@@H](NC(=O)c1cc(Cl)c(=O)n(-c2cncc(-c3c(Cl)nnn3C)c2)n1)c1cccc(C(F)F)c1F` [Example 12, N-{(R)-1-[3-(difluoromethyl)-2-fluorophenyl]ethyl}-5-chloro-1-[5-(4-chloro-1-methyl-1H-1,2,3-triazol-5-yl)-3-pyridyl]-6-oxo-1,6-dihydropyridazine-3-carboxamide], for which the IC50 in assay [1] (setting [3]) is more than 150 nM; in assay [2] (setting [4]), 50 to 150 nM.

For `C[C@@H](NC(=O)c1ccc(=O)n(-c2cncc(-c3c(Cl)nnn3C)c2)n1)c1cccc(C(F)F)c1F` [Example 13, N-{(R)-1-[3-(difluoromethyl)-2-fluorophenyl]ethyl}-1-[5-(4-chloro-1-methyl-1H-1,2,3-triazol-5-yl)-3-pyridyl]-6-oxo-1,6-dihydropyridazine-3-carboxamide], the values for the IC50 in assay [1] (setting [3]) and in assay [2] (setting [4]) were more than 150 nM and 50 to 150 nM, respectively.

Turning to `C[C@@H](NC(=O)c1ccc(=O)n(-c2cncc(-c3cnnn3C3CNC3)c2)n1)c1cccc(C(F)(F)F)c1F` [Example 19], the IC50 in assay [1] (setting [3]) and in assay [2] (setting [4]) was less than 50 nM throughout.

Turning to `C[C@@H](NC(=O)c1ccc(=O)n(-c2cncc(-c3cnnn3C3CN(C)C3)c2)n1)c1cccc(C(F)(F)F)c1F` [Example 20, N-{(R)-1-[2-fluoro-3-(trifluoromethyl)phenyl]ethyl}-1-{5-[1-(1-methyl-3-azetidinyl)-1H-1,2,3-triazol-5-yl]-3-pyridyl}-6-oxo-1,6-dihydropyridazine-3-carboxamide], the IC50 in assay [1] (setting [3]) and in assay [2] (setting [4]) was less than 50 nM throughout.

In the case of `C[C@@H](NC(=O)c1ccc(=O)n(-c2cncc(-c3cnnn3C3CN(CCO)C3)c2)n1)c1cccc(C(F)(F)F)c1F` [Example 20-1, (R)-N-(1-(2-fluoro-3-(trifluoromethyl)phenyl)ethyl)-1-(5-(1-(1-(2-hydroxyethyl)azetidin-3-yl)-1H-1,2,3-triazol-5-yl)pyridin-3-yl)-6-oxo-1,6-dihydropyridazine-3-carboxamide], the IC50 in assay [1] (setting [3]) was 50 to 150 nM; in assay [2] (setting [4]), less than 50 nM.

`C[C@@H](NC(=O)c1ccc(=O)n(-c2cncc(-c3cnnn3C3CNC3)c2)n1)c1cccc(C(F)(F)CO)c1F` [Example 20-2, (R)-1-(5-(1-(azetidin-3-yl)-1H-1,2,3-triazol-5-yl)pyridin-3-yl)-N-(1-(3-(1,1-difluoro-2-hydroxyethyl)-2-fluorophenyl)ethyl)-6-oxo-1,6-dihydropyridazine-3-carboxamide]: the IC50 in assay [1] (setting [3]) and in assay [2] (setting [4]) was less than 50 nM throughout.

Take `[2H]C([2H])(O)C(F)(F)c1cccc([C@@H](C)NC(=O)c2ccc(=O)n(-c3cncc(-c4cnnn4C4CNC4)c3)n2)c1F` [Example 20-3, (R)-1-(5-(1-(azetidin-3-yl)-1H-1,2,3-triazol-5-yl)pyridin-3-yl)-N-(1-(3-(1,1-difluoro-2-hydroxyethyl-2,2-dideuterio)-2-fluorophenyl)ethyl)-6-oxo-1,6-dihydropyridazine-3-carboxamide]: the IC50 in assay [1] and in assay [2] was less than 50 nM throughout.

On to `C[C@@H](NC(=O)c1ccc(=O)n(-c2cncc(-c3cnnn3C3CCNCC3)c2)n1)c1cccc(C(F)(F)F)c1F` [Example 20-4, N-[(1R)-1-[2-fluoro-3-(trifluoromethyl)phenyl]ethyl]-6-oxo-1-[5-[3-(4-piperidyl)triazol-4-yl]-3-pyridyl]pyridazine-3-carboxamide], for which the IC50 in assay [1] is 50 to 150 nM; in assay [2], less than 50 nM.

Take `C[C@@H](NC(=O)c1ccc(=O)n(-c2cncc(-c3cnnn3[C@H]3CCNC3)c2)n1)c1cccc(C(F)(F)F)c1F` [Example 20-5, N-[(1R)-1-[2-fluoro-3-(trifluoromethyl)phenyl]ethyl]-6-oxo-1-[5-[3-[(3S)-pyrrolidin-3-yl]triazol-4-yl]-3-pyridyl]pyridazine-3-carboxamide]: the IC50 in assay [1] and in assay [2] was 50 to 150 nM throughout.

Regarding `C[C@@H](NC(=O)c1ccc(=O)n(-c2cncc(-c3cnnn3C3CCN(C)CC3)c2)n1)c1cccc(C(F)(F)F)c1F` [Example 20-6, (R)-N-(1-(2-fluoro-3-(trifluoromethyl)phenyl)ethyl)-1-(5-(1-(1-methylpiperidin-4-yl)-1H-1,2,3-triazol-5-yl)pyridin-3-yl)-6-oxo-1,6-dihydropyridazine-3-carboxamide], the IC50 in assay [1] (setting [3]) and in assay [2] (setting [4]) was less than 50 nM in each case.

For the compound `CC(=O)N1CCC(n2nncc2-c2cncc(-n3nc(C(=O)N[C@H](C)c4cccc(C(F)(F)F)c4F)ccc3=O)c2)CC1` [Example 20-7, (R)-1-(5-(1-(1-acetylpiperidin-4-yl)-1H-1,2,3-triazol-5-yl)pyridin-3-yl)-N-(1-(2-fluoro-3-(trifluoromethyl)phenyl)ethyl)-6-oxo-1,6-dihydropyridazine-3-carboxamide], the IC50 in assay [1] (setting [3]) and in assay [2] (setting [4]) was less than 50 nM in each case.

On to `C[C@@H](NC(=O)c1ccc(=O)n(-c2cncc(-c3cnnn3C3CCN(S(C)(=O)=O)CC3)c2)n1)c1cccc(C(F)(F)F)c1F` [Example 20-8, (R)-N-(1-(2-fluoro-3-(trifluoromethyl)phenyl)ethyl)-1-(5-(1-(1-(methylsulfonyl)piperidine-4-yl)-1H-1,2,3-triazol-5-yl)pyridin-3-yl)-6-oxo-1,6-dihydropyridazine-3-carboxamide], for which the IC50 in assay [1] (setting [3]) and in assay [2] (setting [4]) was less than 50 nM in each case.

In the case of `CCN1CC(n2nncc2-c2cncc(-n3nc(C(=O)N[C@H](C)c4cccc(C(F)(F)F)c4F)ccc3=O)c2)C1` [Example 20-9, (R)-1-(5-(1-(1-ethylazetidin-3-yl)-1H-1,2,3-triazol-5-yl)pyridin-3-yl)-N-(1-(2-fluoro-3-(trifluoromethyl)phenyl)ethyl)-6-oxo-1,6-dihydropyridazine-3-carboxamide], the IC50 in assay [1] (setting [3]) and in assay [2] (setting [4]) was less than 50 nM throughout.
